In patent US10676485B2, “Macrocyclic MCL-1 inhibitors and methods of use” (AbbVie Inc., priority 2017, dated 2020):
Where two headings read alike, the source gives them in different places.

Assays:
[1] = tested on: NCI-H929 human multiple myeloma tumor cell line; test: NCI-H929 cell viability assay (CellTiter-Glo); assay type: cell-based; details: NCI-H929, read-out: H929 Viability IC50 (μM), 10% FBS, 24 hours of compound treatment
Protocol: In one exemplary set of conditions, NCI-H929 or AMO-1 (ATCC. Manassas, Va.) were plated 4.000 cells per well in 384-well tissue culture plates (Corning. Corning, N.Y.) in a total volume of 25 μL RPMI tissue culture medium supplemented with 10% fetal bovine serum (Sigma-Aldrich, St. Louis, Mo.) and treated with a 3-fold serial dilution of the compounds of interest with a Labcyte Echo from a final concentration of 10 μM to 0.0005 μM. Each concentration was tested in duplicate at least 3 independent times. A luminescent signal proportional to the number of viable cells following 24 hours of compound treatment was determined using the CellTiter-Glo® Luminescent Cell Viability Assay according to the manufacturer's recommendations (Promega Corp., Madison, Wis.). The plates were read in a Perkin Elmer Envision using a Luminescence protocol. To generate dose response curves the data is normalized to percent viability by setting the averages of the staurosporine (10 uM) and DMSO only control wells to 0% and (00)% viability respectively. The IC50 values for the compounds are generated by fitting the normalized data with Accelrys Assay Explorer 3.3 to a sigmoidal curve model using linear regression.

GST-MCL-1 = GST-MCL-1 (Homo sapiens (Human), UniProt Q07820); test: TR-FRET MCL-1 binding assay (competition with probe F-Bak)
Chain of GST-MCL-1 (Q07820 whole entry): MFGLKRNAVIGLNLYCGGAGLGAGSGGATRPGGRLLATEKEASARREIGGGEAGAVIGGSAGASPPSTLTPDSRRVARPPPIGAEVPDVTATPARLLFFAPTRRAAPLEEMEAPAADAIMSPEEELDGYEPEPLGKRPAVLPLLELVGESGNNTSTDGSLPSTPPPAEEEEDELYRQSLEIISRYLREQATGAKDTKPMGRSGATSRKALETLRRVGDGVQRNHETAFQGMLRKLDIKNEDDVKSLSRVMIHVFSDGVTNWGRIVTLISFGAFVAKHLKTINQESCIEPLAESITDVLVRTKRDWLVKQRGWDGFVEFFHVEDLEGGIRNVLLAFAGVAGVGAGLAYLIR
Procedure, shortened: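 Compounds as 11 three-fold dilutions from 25 μM with GST-MCL-1, F-Bak probe and Tb-anti-His antibody, 2 h at room temperature. TR-FRET at 340 nm excitation, 520/525 nm (F-Bak) and 495/510 nm (Tb) emission. Run without human serum and with 10% HS.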

[2] = tested on: AMO-1 human multiple myeloma tumor cell line; test: AMO-1 cell viability assay (CellTiter-Glo); assay type: cell-based; details: AMO1, read-out: AMO-1 Viability IC50 (μM), 10% FBS, 24 hours of compound treatment
[3] = read-out: MCL-1 Binding Ki (nM, 10% HS), in the presence of 10% HS
[4] = without HS, read-out: MCL-1 Binding Ki

| SMILES | IC50 [1] | Ki (GST-MCL-1; [3]) | Ki (GST-MCL-1; [4]) | IC50 [2] |
| --- | --- | --- | --- | --- |
| Cc1c(Cl)c2c(Cl)c(C)c1-c1c(-c3ccc(F)cc3)sc3ncnc(c13)O[C@@H](C(=O)O)Cc1cc(ccc1OCc1ccnc(C3=CC[C@](F)(COC[C@@H]4COCCO4)CC3)n1)OC[C@@H](CN1CCN(C)CC1)O2 [Example 45, (7R,16R)-19,23-dichloro-10-({2-[(4S)-4-({[(2S)-1,4-dioxan-2-yl]methoxy}methyl)-4-fluorocyclohex-1-en-1-yl]pyrimidin-4-yl}methoxy)-1-(4-fluorophenyl)-20,22-dimethyl-16-[(4-methylpiperazin-1-yl)methyl]-7,8,15,16-tetrahydro-18,21-etheno-13,9-(metheno)-6,14,17-trioxa-2-thia-3,5-diazacyclononadeca[1,2,3-cd]indene-7-carboxylic acid] | 0.000258 µM | 0.16 nM | 0.012 nM | 0.249 nM |
| Cc1c(Cl)c2c(Cl)c(C)c1-c1c(-c3ccc(F)cc3)sc3ncnc(c13)O[C@@H](C(=O)O)Cc1cc(ccc1OCc1ccnc([C@H]3CC[C@H](OCC4COCO4)CC3)n1)OC[C@@H](CN1CCN(C)CC1)O2 (stereo partly drawn) [Example 14, (7R,16R)-19,23-dichloro-10-[(2-{(1r,4r)-4-[(1,3-dioxolan-4-yl)methoxy]cyclohexyl}pyrimidin-4-yl)methoxy]-1-(4-fluorophenyl)-20,22-dimethyl-16-[(4-methylpiperazin-1-yl)methyl]-7,8,15,16-tetrahydro-18,21-etheno-13,9-(metheno)-6,14,17-trioxa-2-thia-3,5-diazacyclononadeca[1,2,3-cd]indene-7-carboxylic acid] | 0.000236 µM | 0.09 nM | 0.006 nM | 0.114 nM |
| Cc1c(Cl)c2c(Cl)c(C)c1-c1c(-c3ccc(F)cc3)sc3ncnc(c13)O[C@@H](C(=O)O)Cc1cc(ccc1OCc1ccnc(OC[C@H]3COCCO3)n1)OC[C@@H](CN1CCN(C)CC1)O2 [Example 25, (7R,16R)-19,23-dichloro-10-[(2-{[(2R)-1,4-dioxan-2-yl]methoxy}pyrimidin-4-yl)methoxy]-1-(4-fluorophenyl)-20,22-dimethyl-16-[(4-methylpiperazin-1-yl)methyl]-7,8,15,16-tetrahydro-18,21-etheno-9,13-(metheno)-6,14,17-trioxa-2-thia-3,5-diazacyclononadeca[1,2,3-cd]indene-7-carboxylic acid] | 0.00188 µM | 0.19 nM | 0.003 nM | 0.629 nM |
| Cc1c(Cl)c2c(Cl)c(C)c1-c1c(C3=CCCC3)sc3ncnc(c13)O[C@@H](C(=O)O)Cc1cc(ccc1OCc1ccnc([C@H]3CC[C@H](OCC4COCCO4)CC3)n1)OC[C@@H](CN1CCN(C)CC1)O2 (stereo partly drawn) [Example 32, (7R,16R)-19,23-dichloro-1-(cyclopent-1-en-1-yl)-10-[(2-{(1r,4r)-4-[(1,4-dioxan-2-yl)methoxy]cyclohexyl}pyrimidin-4-yl)methoxy]-20,22-dimethyl-16-[(4-methylpiperazin-1-yl)methyl]-7,8,15,16-tetrahydro-18,21-etheno-13,9-(metheno)-6,14,17-trioxa-2-thia-3,5-diazacyclononadeca[1,2,3-cd]indene-7-carboxylic acid] | 0.000296 µM | 0.27 nM | 0.022 nM | 0.17 nM |
| Cc1c2ccc(c1Cl)O[C@H](CN1CCN(C)CC1)COc1ccc(OCc3ccnc(C4COCCO4)n3)c(c1)C[C@H](C(=O)O)Oc1ncnc3sc(-c4ccc(F)cc4)c-2c13 (stereo partly drawn) [Example 4, (7R,16R,21S)-19-chloro-10-{[2-(1,4-dioxan-2-yl)pyrimidin-4-yl]methoxy}-1-(4-fluorophenyl)-20-methyl-16-[(4-methylpiperazin-1-yl)methyl]-7,8,15,16-tetrahydro-18,21-etheno-13,9-(metheno)-6,14,17-trioxa-2-thia-3,5-diazacyclononadeca[1,2,3-cd]indene-7-carboxylic acid] | 0.00572 µM | 0.32 nM | 0.055 nM | 2.73 nM |
| Cc1c(Cl)c2c(Cl)c(C)c1-c1c(-c3ccc(F)cc3)sc3ncnc(c13)O[C@@H](C(=O)O)Cc1cc(ccc1OCc1ccnc([C@H]3CC[C@@](F)(COC[C@@H]4COCCO4)CC3)n1)OC[C@@H](CN1CCN(C)CC1)O2 [Example 46, (7R,16R)-19,23-dichloro-10-({2-[(1S,4r)-4-({[(2S)-1,4-dioxan-2-yl]methoxy}methyl)-4-fluorocyclohexyl]pyrimidin-4-yl}methoxy)-1-(4-fluorophenyl)-20,22-dimethyl-16-[(4-methylpiperazin-1-yl)methyl]-7,8,15,16-tetrahydro-18,21-etheno-13,9-(metheno)-6,14,17-trioxa-2-thia-3,5-diazacyclononadeca[1,2,3-cd]indene-7-carboxylic acid] | 0.000418 µM | 0.24 nM | 0.022 nM | 0.579 nM |
| Cc1c(Cl)c2c(Cl)c(C)c1-c1c(C3CCCCC3)sc3ncnc(c13)O[C@@H](C(=O)O)Cc1cc(ccc1OCc1ccnc(-c3ccc(OC[C@@H]4COCCO4)cc3)n1)OC[C@@H](CN1CCN(C)CC1)O2 [Example 17, (7R,16R)-19,23-dichloro-1-cyclohexyl-10-{[2-(4-{[(2S)-1,4-dioxan-2-yl]methoxy}phenyl)pyrimidin-4-yl]methoxy}-20,22-dimethyl-16-[(4-methylpiperazin-1-yl)methyl]-7,8,15,16-tetrahydro-18,21-etheno-9,13-(metheno)-6,14,17-trioxa-2-thia-3,5-diazacyclononadeca[1,2,3-cd]indene-7-carboxylic acid] | 0.00565 µM | 4.11 nM | 0.09 nM | 1 nM |
| Cc1c(Cl)c2c(Cl)c(C)c1-c1c(-c3ccc(F)cc3)sc3ncnc(c13)O[C@@H](C(=O)O)Cc1cc(ccc1OCc1ccnc(OC[C@@H]3COCCO3)n1)OC[C@@H](CN1CCN(C)CC1)O2 [Example 24, (7R,16R)-19,23-dichloro-10-[(2-{[(2S)-1,4-dioxan-2-yl]methoxy}pyrimidin-4-yl)methoxy]-1-(4-fluorophenyl)-20,22-dimethyl-16-[(4-methylpiperazin-1-yl)methyl]-7,8,15,16-tetrahydro-18,21-etheno-9,13-(metheno)-6,14,17-trioxa-2-thia-3,5-diazacyclononadeca[1,2,3-cd]indene-7-carboxylic acid] | 0.00197 µM | 0.38 nM | 0.038 nM | 0.687 nM |
| Cc1c(Cl)c2c(Cl)c(C)c1-c1c(-c3ccc(F)cc3)sc3ncnc(c13)O[C@@H](C(=O)O)Cc1cc(ccc1OCc1ccnc(-c3ccc(NC[C@H]4COCCO4)nc3)n1)OC[C@@H](CN1CCN(C)CC1)O2 [Example 36, (7R,16R)-19,23-dichloro-10-({2-[6-({[(2S)-1,4-dioxan-2-yl]methyl}amino)pyridin-3-yl]pyrimidin-4-yl}methoxy)-1-(4-fluorophenyl)-20,22-dimethyl-16-[(4-methylpiperazin-1-yl)methyl]-7,8,15,16-tetrahydro-18,21-etheno-13,9-(metheno)-6,14,17-trioxa-2-thia-3,5-diazacyclononadeca[1,2,3-cd]indene-7-carboxylic acid] | 0.000183 µM | 0.05 nM | 0.001 nM | 0.0488 nM |
